Patent publication US7511027B2, “Method of treating hepatitis delta virus infection” (Georgetown University, priority 2000, dated 2009)

Assays:
hepatocytes = settings: cited from earlier work
HDV [1] = settings: in vitro; cited from earlier work
HDV [2] = settings: in vivo; cited from earlier work
WHV = test: Woodchuck model of chronic HDV infection: serum WHV DNA; type: in vivo
Protocol: (§1) The woodchuck was used as an experimental model of chronic HDV infection to assess the effect of L-FMAU treatment on HDV replication. Woodchucks chronically infected with WHV were infected with a woodchuck-adapted HDV inoculum derived from a laboratory infectious clone. Nine of eleven infected animals were determined to have chronic HDV infection, as defined by RT/PCR-detectable HDV viremia (Niro et al. (1997) Hepatology 25, 728-734) for at least 74% of bleed dates for at least 11 months prior to the initiation of treatment. The range of duration of viremia prior to the start of the study was 11.4-20 months; the range of positive bleed dates was 74% to 100%. Animals in the treatment group (4) were given 10 mg/kg L-FMAU daily; animals in the control group (5) were given placebo. Serum samples were obtained before the initiation of treatment, and at weeks 2, 4, 8, 12, 16 and 20. Serum samples were analyzed for WHV DNA, WHV surface antigen and HDV RNA.

HDV [3] = test: Woodchuck model of chronic HDV infection: serum HDV RNA; type: in vivo
Protocol: as §1

WHV surface antigen = test: Woodchuck model of chronic HDV infection: serum WHV surface antigen; type: in vivo
Protocol: as §1

[4] = one animal in the treated group, animal 4543

## Cc1ccc(C(=O)Nc2ccc(S(=O)(=O)O)c3cc(S(=O)(=O)O)cc(S(=O)(=O)O)c23)cc1NC(=O)c1cccc(NC(=O)Nc2cccc(C(=O)Nc3cc(C(=O)Nc4ccc(S(=O)(=O)O)c5cc(S(=O)(=O)O)cc(S(=O)(=O)O)c45)ccc3C)c2)c1 [suramin]
hepatocytes
  entry of the virion into hepatocytes: blocks

## Nc1nc2c(ncn2COCCO)c(=O)[nH]1 [Acyclovir]
HDV [1]
  HDV replication: enhances

## NC(=O)c1ncn([C@@H]2O[C@H](CO)[C@@H](O)[C@H]2O)n1 [Ribavirin]
HDV [2]
  side-effects: severe side-effects
  virological or biochemical parameters: did not significantly affect

## Cc1cn([C@H]2O[C@@H](CO)[C@H](O)[C@H]2F)c(=O)[nH]c1=O [L-FMAU, 2′-fluoro-5-methyl-β-L-arabinofuranosyl-uridine]
WHV; 10 mg/kg L-FMAU daily, by 4 weeks of treatment, all treated animals (FIG. 6B)
  decrease in serum WHV DNA: > 10^7 fold
WHV; over twenty weeks of treatment
  serum WHV-DNA (FIG. 6B): significant decrease
HDV [3]; 10 mg/kg L-FMAU daily, by 16 weeks of treatment (FIG. 6A)
  HDV RNA in serum: undetectable in ¾ treated animals
HDV [3]; [4]
  HDV viremia, animal 4543: remained high
HDV [3]; over twenty weeks of treatment
  serum HDV-RNA (FIG. 6A): significant decrease
HDV [3]; woodchucks 4878, 4879, 4883, by 8 weeks of treatment vs start of treatment and vs five untreated animals (FIG. 8)
  mean serum HDV RNA: dramatic decline
WHV surface antigen; 10 mg/kg L-FMAU daily, by 12 weeks, all but one (animal 4543) of the treated animals (FIG. 6C)
  decrease in surface antigen levels: ~1,000 fold
WHV surface antigen; [4]
  levels of surface antigen, animal 4543: did not exhibit decreased levels
WHV surface antigen; over twenty weeks of treatment
  serum WHsAg (FIG. 6C): significant decrease
WHV surface antigen; treated animals with decreased surface antigen, sustained for remainder of treatment
  surface antigen concentration after which HDV viremia became undetectable: less than 1 microgram/mL
WHV surface antigen; treated woodchucks 4878, 4879 and 4883
  drop of WHsAg levels during treatment: more than 100 fold
